In article PMC7851014 (Investigational New Drugs, 2020):

Columns and labels:
clinical [1] = conditions: human, in vivo
Experimental: (§1) For analysis, 200 μL acetonitrile containing the internal standards was added to 100 μL sample. After mixing and centrifuging, 200 μL supernatant was transferred, and thereafter the solvent was partially evaporated. Before the samples were analyzed by ultra-high-performance liquid chromatography with mass spectrometer detection [21], 100 μL of mobile phase (water:acetonitrile:formic acid, 90:10:0.1 (v:v:v)) was added.
(§2) When no time was available at all, the sample was omitted. […] Pharmacokinetic (PK) data was analyzed using the PKNCA package (version 0.8.1) [22] for the statistical software R (version 3.4.2) [23] and RStudio (version 1.1.383) [24].

[2] = human, in vivo
Experimental: as §1, §2

[3] = Ibrutinib and SMT-conjugate pharmacokinetics in human subjects (plasma of patients A and B); conditions: for Concentration: omitted (no group)
Experimental: as §1, §2

ciPTEC [4] = format: cell-based; conditions: 2 μM ibrutinib with efflux transporter inhibitors, 48 h
Experimental: Cytotoxicity was evaluated using a Presto-blue assay as follows: cells were incubated for 1 h with Presto-blue solution (100 μL/well) at 37 °C and […] read using a Jasco FP8300 fluorometer (Tokyo, Japan; excitation wavelength: 560 nm, emission wavelength: 590 nm).

clinical [5] = conditions: male, human, in vivo, 140 mg
Experimental: as §1
Time-concentration data of three patients were analyzed. […] When no time was available at all, the sample was omitted. […] Pharmacokinetic (PK) data was analyzed using the PKNCA package (version 0.8.1) [22] for the statistical software R (version 3.4.2) [23] and RStudio (version 1.1.383) [24].

ciPTEC [6] = conditions: ciPTEC, after 48 h
Experimental: Medium and cell lysate samples were taken at 1, 2, 3 and 4 h. Each time point was measured in duplicate. Preincubation (t0) analyte concentrations in medium were also analyzed.

C=CC(=O)N1CCC[C@@H](n2nc(-c3ccc(Oc4ccccc4)cc3)c3c(N)ncnc32)C1 [Ibrutinib, reference compound]
Tmax (clinical [1]): 2.6 h | Cmax [2]: 370 ± 180 (151–683) nM | Ctrough [2]: 6.4 ± 2 (4.3–8.9) nM | concentration at 1.4 h ([3]; human, in vivo, 420 mg, Concentration, patient A, sample ID 2, T 1.4 h, 1xdd 420mg, group abs): 6.6 nM | concentration at 0.5 h ([3]; human, in vivo, 420 mg, Concentration, patient A, sample ID 5, T 0.5 h, 1xdd 420mg, group abs): 11.8 nM | concentration at 0.8 h ([3]; human, in vivo, 420 mg, Concentration, patient A, sample ID 6, T 0.8 h, 1xdd 420mg, group abs): 14.6 nM | concentration at 22.7 h ([3]; human, in vivo, 420 mg, Concentration, patient A, sample ID 8, T 22.7 h, 1xdd 420mg, group trough): 8.9 nM | concentration at 22.2 h ([3]; human, in vivo, 420 mg, Concentration, patient A, sample ID 10, T 22.2 h, 1xdd 420mg, group trough): 7 nM | concentration at 22.6 h ([3]; human, in vivo, 420 mg, Concentration, patient A, sample ID 11, T 22.6 h, 1xdd 420mg, group trough): 4.3 nM | concentration at 2.5 h ([3]; human, in vivo, 420 mg, Concentration, patient A, sample ID 13, T 2.5 h, 1xdd 420mg, group max): 683 nM | concentration at 3.8 h ([3]; human, in vivo, 420 mg, Concentration, patient A, sample ID 14, T 3.8 h, 1xdd 420mg, group max): 151 nM | concentration at 23.3 h ([3]; human, in vivo, 420 mg, Concentration, patient A, sample ID 19, T 23.3 h, 1xdd 420mg, group trough): 5.5 nM | concentration at 0.8 h ([3]; human, in vivo, 420 mg, Concentration, patient A, sample ID 21, T 0.8 h, 1xdd 420mg, group abs): 143 nM | concentration at 0.8 h ([3]; human, in vivo, 560 mg, Concentration, patient A, sample ID 3, T 0.8 h, 1xdd 560mg, group abs): 3.5 nM | concentration at 2.8 h ([3]; human, in vivo, 560 mg, Concentration, patient B, sample ID 4, T 2.8 h, 1xdd 560mg, group max): 234 nM | concentration at 4.1 h ([3]; human, in vivo, 560 mg, Concentration, patient B, sample ID 7, T 4.1 h, 1xdd 560mg, group max): 360 nM | concentration at 4.4 h ([3]; human, in vivo, 560 mg, Concentration, patient B, sample ID 9, T 4.4 h, 1xdd 560mg, group max): 192 nM | concentration at 2.4 h ([3]; human, in vivo, 560 mg, Concentration, patient B, sample ID 12, T 2.4 h, 1xdd 560mg, group max): 551 nM | concentration at 3.9 h ([3]; human, in vivo, 560 mg, Concentration, patient B, sample ID 17, T 3.9 h, 1xdd 560mg, group max): 578 nM | concentration at 3.8 h ([3]; human, in vivo, 560 mg, Concentration, patient B, sample ID 20, T 3.8 h, 1xdd 560mg, group max): 196 nM | concentration at 4.1 h ([3]; human, in vivo, 560 mg, Concentration, patient B, sample ID 23, T 4.1 h, 1xdd 560mg, group max): 497 nM | concentration at 4.4 h ([3]; human, in vivo, 560 mg, Concentration, patient B, sample ID 24, T 4.4 h, 1xdd 560mg, group max): 323 nM | Concentration ([3]; patient A, sample ID 15, T NA, 1xdd 420mg): 15.8 nM | Concentration ([3]; patient A, sample ID 22, T NA, 1xdd 420mg): 0.9 nM | cell death (ciPTEC [4]): up to 50% | AUC(0-t) (clinical [5]): 0.325 µM·h | ibrutinib metabolized (ciPTEC [6]): ca. 98%
